The values below come from patent publication US6984634B2, “Bile-acid conjugates for providing sustained systemic concentrations of drugs” (XenoPort, Inc., priority 2000, dated 2006).

One may read the IC50 as the midpoint of a concentration-inhibition curve. As usually defined, the EC50 is the midpoint of the concentration-response curve. Lower therefore signals higher potency in that assay. What is called bioavailability is dose-corrected exposure relative to a reference, in per cent. Read a high bioavailability as good availability. As a reminder, the Tmax is the time at which the peak concentration occurs. The term half-life denotes the time needed for the level to fall by half in the phase considered. Lower therefore signals fast loss.

Like-named read-outs stand apart in the source and are kept apart here.

Series [1] concerns the target T1, rPEPT1 (Rattus norvegicus, UniProt P51574).
T1 construct: expressed in transfected cells; host or cells: CHO cells
T1 sequence (P51574 1-710): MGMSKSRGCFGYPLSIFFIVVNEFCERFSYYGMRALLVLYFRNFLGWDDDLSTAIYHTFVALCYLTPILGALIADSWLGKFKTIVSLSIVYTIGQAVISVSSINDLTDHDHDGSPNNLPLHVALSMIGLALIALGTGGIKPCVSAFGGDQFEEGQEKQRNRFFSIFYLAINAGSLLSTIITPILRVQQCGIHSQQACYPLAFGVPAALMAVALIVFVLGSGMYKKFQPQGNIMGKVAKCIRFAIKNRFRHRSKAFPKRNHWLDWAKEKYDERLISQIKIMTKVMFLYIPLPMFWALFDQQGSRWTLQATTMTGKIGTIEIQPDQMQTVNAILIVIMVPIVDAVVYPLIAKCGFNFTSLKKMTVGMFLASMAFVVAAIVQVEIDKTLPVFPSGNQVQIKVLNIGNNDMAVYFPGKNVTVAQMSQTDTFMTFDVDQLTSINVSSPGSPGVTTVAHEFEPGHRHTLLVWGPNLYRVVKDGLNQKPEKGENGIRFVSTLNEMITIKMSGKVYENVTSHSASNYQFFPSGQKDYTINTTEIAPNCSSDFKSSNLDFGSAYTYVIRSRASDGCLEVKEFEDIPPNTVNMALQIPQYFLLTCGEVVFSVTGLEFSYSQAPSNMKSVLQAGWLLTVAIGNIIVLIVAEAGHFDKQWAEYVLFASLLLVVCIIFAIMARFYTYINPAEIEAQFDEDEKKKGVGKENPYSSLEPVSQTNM
The series can be described thus: Transport-induced currents in Xenopus oocytes expressing rPEPT1. Format: cell-based. As to conditions: relative to Gly-Sar, test compound 1 mM. How it is done: (§1) Rat and human PEPT1 and PEPT2 expressing CHO cell lines were prepared as described in PCT Application WO01/20331. Gabapentin-containing dipeptides were evaluated for interaction with the peptide transporters using a radiolabeled substrate uptake assay in a competitive inhibition format, as described in PCT Application WO01/20331. Transport-induced currents were also measured in Xenopus oocytes transfected with rat and human PEPT1 and PEPT2.

Series [2] deals with T1, rPEPT1. Kind of series: Inhibition of radiolabeled Gly-Sar uptake in rPEPT1-expressing CHO cells. It counts as cell-based. The protocol:
as §1

For series [3], the target named is T2, rPEPT2 (Rattus norvegicus, UniProt Q63424).
T2 construct: expressed in transfected cells; host or cells: Xenopus oocytes
T2 sequence (Q63424 1-729): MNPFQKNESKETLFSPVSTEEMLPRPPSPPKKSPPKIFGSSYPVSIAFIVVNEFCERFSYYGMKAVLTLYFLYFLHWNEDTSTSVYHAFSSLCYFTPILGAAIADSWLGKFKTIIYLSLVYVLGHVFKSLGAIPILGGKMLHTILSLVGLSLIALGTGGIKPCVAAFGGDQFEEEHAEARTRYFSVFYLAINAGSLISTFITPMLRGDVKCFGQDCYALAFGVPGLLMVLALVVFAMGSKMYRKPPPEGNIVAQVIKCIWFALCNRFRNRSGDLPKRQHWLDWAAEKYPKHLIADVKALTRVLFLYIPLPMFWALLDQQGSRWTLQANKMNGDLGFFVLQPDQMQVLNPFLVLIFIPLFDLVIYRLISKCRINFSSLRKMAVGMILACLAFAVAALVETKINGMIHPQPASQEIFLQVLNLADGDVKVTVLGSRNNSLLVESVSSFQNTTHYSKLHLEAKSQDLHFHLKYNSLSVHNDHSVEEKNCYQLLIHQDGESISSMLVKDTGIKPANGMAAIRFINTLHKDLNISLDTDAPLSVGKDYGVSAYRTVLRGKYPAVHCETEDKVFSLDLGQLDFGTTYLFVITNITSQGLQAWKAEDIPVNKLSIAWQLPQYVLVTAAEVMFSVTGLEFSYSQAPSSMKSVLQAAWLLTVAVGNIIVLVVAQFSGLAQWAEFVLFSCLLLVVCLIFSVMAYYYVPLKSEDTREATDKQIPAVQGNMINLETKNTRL
Kind of series: Transport-induced currents in Xenopus oocytes expressing rPEPT2. It counts as cell-based. The note with it: relative to Gly-Sar, test compound 1 mM. The protocol:
as §1

Series [4] concerns the target T2, rPEPT2. Kind of series: Inhibition of radiolabeled Gly-Sar uptake in rPEPT2-expressing CHO cells. It counts as cell-based. How it is done:
as §1

Series [5] concerns the target T3, IBAT transporter (Homo sapiens, UniProt Q12908).
T3 sequence (Q12908 1-348): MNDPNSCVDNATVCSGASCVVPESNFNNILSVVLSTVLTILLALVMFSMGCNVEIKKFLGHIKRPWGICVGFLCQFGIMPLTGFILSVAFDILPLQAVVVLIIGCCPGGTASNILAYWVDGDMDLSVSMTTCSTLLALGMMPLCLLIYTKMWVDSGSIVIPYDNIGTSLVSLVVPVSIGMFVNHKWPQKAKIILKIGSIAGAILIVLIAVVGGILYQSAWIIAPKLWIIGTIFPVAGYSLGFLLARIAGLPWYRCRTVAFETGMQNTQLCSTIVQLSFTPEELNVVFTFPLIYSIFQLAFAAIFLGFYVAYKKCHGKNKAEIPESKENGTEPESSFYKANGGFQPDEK
The series can be described thus: Inhibition of radiolabeled taurocholate uptake in IBAT-expressing CHO cells. As to conditions: radiolabeled competition assay in IBAT-expressing CHO cells, taurocholate 5 μM. It counts as cell-based. The protocol:
(§2) (a) Inhibition of Radiolabeled Taurocholate Uptake
(§3) CHO cells transfected with the IBAT or LBAT transporter were seeded into 96-well microtiter plates at 100,000 cells/well in 100 μL DMEM containing 10% serum, glutamine and Penstrep. After overnight incubation the media was removed and test compound (25 μL) added at 2× the final desired concentration. Tritiated taurocholate (50,000 CPM/well) was diluted with cold substrate to a final concentration of 5 μM and 25 μL/well of this mixture was added to the plate. After incubating for 1 h at room temperature the solution was removed and the plate washed 4× with PBS at 4° C. 200 μL/well of scintillant is added and the plate then read in a Wallac microbeta counter. The inhibition data is processed by standard methods to calculate an inhibition constant K1 for the test compound.

The target of series [6] is T3, IBAT transporter. The series can be described thus: Electrogenic transport in Xenopus oocytes expressing IBAT. The note with it: for % Max. (GDC): relative to glycodeoxycholate. Format: cell-based. From the text: (b) Analysis of Electrogenic Transport in Xenopus Oocytes
RNA preparation: Human IBAT Transporter cDNAs were subcloned into a modified pGEM plasmid that contains 5′ and 3′ untranslated sequences from the Xenopus β-actin gene. These sequences increase RNA stability and protein expression. Plasmid cDNA was linearized and used as template for in vitro transcription (Epicentre Technologies transcription kit, 4:1 methylated:non-methylated GTP).
Xenopus oocyte isolation. Xenopus laevis frogs were anesthetized by immersion in Tricaine ([…] in deionized water) for 15 min. Oocytes were removed and digested in frog ringer solution (90 mM NaCl, 2 mM KCl, 1 mM MgCl2, 10 mM NaHEPES, pH 7.45, no CaCl2) with 1 mg/mL collagenase (Worthington Type 3) for 80-100 min with shaking. The oocytes were washed 6 times, and the buffer changed to frog ringer solution containing CaCl2 (1.8 mM). Remaining follicle cells were removed if necessary. Cells were incubated at 16° C., and each oocyte injected with […] RNA in […] solution.
Electrophysiology measurements. Transport currents were measured 2-14 days after injection, using a standard two-electrode electrophysiology set-up (Geneclamp 500 amplifier, Digidata 1320/PCLAMP software and ADInstruments hardware and software were used for signal acquisition). Electrodes ([…]) were microfabricated using a Sutter Instrument puller and filled with 3M KCl. The bath was directly grounded (transporter currents were less than 0.3 μA). Bath flow was controlled by an automated perfusion system (ALA Scientific Instruments, solenoid valves).
For transporter pharmacology, oocytes were clamped at −60 to −90 mV, and continuous current measurements acquired using PowerLab Software and an ADInstruments digitizer. Current signals were lowpass filtered at 20 Hz and acquired at 4-8 Hz. All bath and drug-containing solutions were frog ringers solution containing CaCl2. Drugs were applied for 10-30 seconds until the induced current reached a new steady-state level, followed by a control solution until baseline currents returned to levels that preceded drug application. The difference current (baseline subtracted from peak current during drug application) reflected the net movement of charge resulting from electrogenic transport and was directly proportional to tranport rate. Recordings were made from a single oocyte for up to 60 min, enabling 30-40 separate compounds to be tested per oocyte. […] To compare results between oocytes expressing different levels of transport activity, a saturating concentration of glycodeoxycholate (300 μM) was used as a common reference to normalize results from test compounds. Using this normalization procedure Vmax (i.e. maximal induced current) for different compounds tested on different oocytes could be compared.

A further series concerns the target T4, LBAT transporter (Homo sapiens, UniProt Q14973).
T4 sequence (Q14973 1-349): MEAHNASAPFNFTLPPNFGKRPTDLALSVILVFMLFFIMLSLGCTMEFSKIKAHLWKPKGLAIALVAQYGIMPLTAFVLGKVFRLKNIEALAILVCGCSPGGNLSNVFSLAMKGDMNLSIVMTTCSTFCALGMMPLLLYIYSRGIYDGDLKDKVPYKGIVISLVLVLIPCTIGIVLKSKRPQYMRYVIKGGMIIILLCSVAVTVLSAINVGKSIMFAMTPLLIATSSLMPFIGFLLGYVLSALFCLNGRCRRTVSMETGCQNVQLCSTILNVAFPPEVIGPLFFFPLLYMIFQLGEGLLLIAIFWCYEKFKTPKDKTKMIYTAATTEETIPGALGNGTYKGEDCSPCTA
The series can be described thus: Inhibition of radiolabeled taurocholate uptake in LBAT-expressing CHO cells. It counts as cell-based. As to conditions: radiolabeled competition assay in LBAT-expressing CHO cells, taurocholate 5 μM. How it is done:
as §2, §3

Series [7] in a line: Pharmacokinetics in rats, Gabapentin in plasma after oral administration. The note with it: male, Sprague-Dawley, rat, 25 mg/kg. How it is done:
The pharmacokinetics of the prodrug Cholyl-Phe-Gabapentin (9g) were examined in rats. Three groups of four male Sprague-Dawley rats (approx 200 g) with jugular cannulae each received one of the following treatments: A) a single bolus intravenous injection of Gabapentin (25 mg/kg, as a solution in water); B) a single oral dose of Gabapentin (25 mg/kg, as a solution in water) administered by oral gavage; C) a single oral dose of (9g) (103.5 mg/kg, as a solution in water) administered by oral gavage. Animals were fasted overnight prior to dosing and until 4 hours post-dosing. Serial blood samples were obtained over 24 hours following dosing and blood was processed for plasma by centrifugation. Plasma samples were stored at −80° C. until analyzed.
Concentrations of (9g) or (2) in plasma samples were determined by LC/MS/MS as described above. Plasma (50 μL) was precipitated by addition of […] of methanol and supernatent was injected directly onto the LC/MS/MS system.

As to `NC(Cc1ccccc1)C(=O)NCC1(CC(=O)O)CCCCC1` (centres unmarked) [Phe-Gabapentin], the “% Max. (Gly-Sar)” value turned out to be 52% at rPEPT1 [1] and 77% at rPEPT2 [3]. Also, the midpoint of inhibition on rPEPT1 [2], the IC50, lay at 56 µM.
For the compound `NCC(=O)NCC1(CC(=O)O)CCCCC1` [Gly-Gabapentin], the “% Max. (Gly-Sar)” value at rPEPT1 [1] is on record as 76%. The IC50 on rPEPT1 [2] (radiolabeled competition assay in rPEPT1-expressing CHO cells, read-out: IC50) is 320 µM.
As for `NC(Cc1ccc(O)cc1)C(=O)NCC1(CC(=O)O)CCCCC1` (centres unmarked) [Tyr-Gabapentin], the “% Max. (Gly-Sar)” value was 22% at rPEPT1 [1] and 73% on rPEPT2 [3]. Moreover, the IC50 at rPEPT2 [4] amounted to 4 µM; at rPEPT1 [2] it was 130 µM.
Turning to `C[C@H](CCC(=O)NCC(=O)NCC1(CC(=O)O)CCCCC1)[C@H]1CC[C@H]2[C@@H]3[C@H](O)C[C@@H]4C[C@H](O)CC[C@]4(C)[C@H]3C[C@H](O)[C@]12C` [Cholyl-Gly-Gabapentin (9a), Cholyl-Gly-Gabapentin], the IC50 stood at 66 µM at IBAT transporter [5] and 64 µM on LBAT transporter. At IBAT transporter [6], this compound gave an EC50 of 22 µM.
On IBAT transporter [5], `CC(CCC(=O)NC(Cc1ccccc1)C(=O)NCC1(CC(=O)O)CCCCC1)C1CCC2C3C(O)CC4CC(O)CCC4(C)C3CCC12C` (centres unmarked) [UDC-Phe-Gabapentin (9p), Ursodeoxycholyl-Phe-Gabapentin] yielded an IC50 of 27 µM. On IBAT transporter [6], the EC50 came to 18 µM and the “% Max. (GDC)” value was determined as 27%. Besides, the IC50 on LBAT transporter worked out at 0.7 µM.
On to `NCC1(CC(=O)O)CCCCC1` [Gabapentin, gabapentin], for which the bioavailability in series [7] (oral) was determined as 87 ± 18%. For the same compound, in series [7] (po), the Tmax came to 1.3 ± 0.5 h and the half-life was 3 ± 1.3 h.
At IBAT transporter [5], `CC(CCC(=O)NC(Cc1ccc(O)cc1)C(=O)NCC1(CC(=O)O)CCCCC1)C1CCC2C3C(O)CC4CC(O)CCC4(C)C3CC(O)C12C` (centres unmarked) [Cholyl-Tyr-Gabapentin (9h), Cholyl-Tyr-Gabapentin] displayed an IC50 of 52 µM. On IBAT transporter [6], the EC50 was 160 µM and the “% Max. (GDC)” value came to 13%. Moreover, the IC50 at LBAT transporter came out at 15 µM.
